Molecular target: T1, VLA-4 (α4β1 integrin) (Homo sapiens, UniProt P05556+P13612)
T1 construct: Ramos cells bearing cell-surface VLA-4; endogenous in cells; host or cells: Ramos cells
Assay: Ramos (VLA-4)/VCAM-1 Cell-Based Screening Assay (cell adhesion)
Conditions: Calcein-AM labeled Ramos cells adhering to immobilized recombinant human VCAM-1
Procedure: Ramos (VLA-4)/VCAM-1 Cell-Based Screening Assay Protocol
Soluble recombinant human VCAM-1 (mixture of 5- and 7-Ig domain) was purified from CHO cell culture media by inmmunoaffinity chromatography and maintained in a solution containing 0.1 M Tris-glycine (pH 7.5), 0.1 M NaCl, 5 mM EDTA, 1 mM PMSF, […] NaN3 and 10 μg/mL leupeptin. Calcein-AM was purchased from Molecular Probes Inc.
VLA-4 (α4β1 integrin) antagonist activity, defined as ability to compete with cell-surface VLA-4 for binding to immobilized VCAM-1, was quantitated using a Ramos-VCAM-1 cell adhesion assay. Ramos cells bearing cell-surface VLA-4, were labeled with a fluorescent dye (Calcein-AM) and allowed to bind VCAM-1 in the presence or absence of test compounds. A reduction in fluorescence intensity associated with adherent cells (% inhibition) reflected competitive inhibition of VLA-4 mediated cell adhesion by the test compound.
Initially, this entailed coating 96 well plates (Nunc Maxisorp) with recombinant human VCAM-1 (100 ng in 100 μl PBS), sealing each plate and allowing the plates to stand at 4° C. for ≈18 hr. The VCAM-coated plates were subsequently washed twice with 0.05% Tween-20 in PBS, and then blocked for 1 hr (room temperature) with 200 μl of Blocking Buffer (1% BSA/0.02% thimerosal) to reduce non-specific binding. Following the incubation with Blocking Buffer, plates were inverted, blotted and the remaining buffer aspirated. Each plate was then washed with 300 μl PBS, inverted and the remaining PBS aspirated.
Test compounds were dissolved in 100% DMSO and then diluted 1:25 in VCAM Cell Adhesion Assay Buffer (4 mM CaCl2, 4 mM MgCl2 in 50 mM TRIS-HCl, pH 7.5) (final DMSO=4%). A series of eight 1:4 dilutions were performed for each compound (general concentration range of 1 nM-12,500 nM). 100 μl/well of each dilution was added to the VCAM-coated plates, followed by 100 μl of Ramos cells (200,000 cells/well in 1% BSA/PBS). Plates containing test compounds and Ramos cells were allowed to incubate for 45 min at room temperature, after which 165 μl/well PBS was added. Plates were inverted to remove non-adherent cells, blotted and 300 μl/well PBS added. Plates were again inverted, blotted and the remaining buffer gently aspirated. 100 μl Lysis Buffer (0.1% SDS in 50 mM TRIS-HCl, pH 8.5) was added to each well and agitated for 2 min on a rotary shaking platform. The plates were then read for fluorescence intensity on a Cytofluor 2300 (Millipore) fluorecence measurement system (excitation=485 nm, emission=530 nm). The results are shown in the following Table II, where (A=IC50<100 nM, B=IC50<10000 nM): […]

T1 sequence (P13612 34-1032): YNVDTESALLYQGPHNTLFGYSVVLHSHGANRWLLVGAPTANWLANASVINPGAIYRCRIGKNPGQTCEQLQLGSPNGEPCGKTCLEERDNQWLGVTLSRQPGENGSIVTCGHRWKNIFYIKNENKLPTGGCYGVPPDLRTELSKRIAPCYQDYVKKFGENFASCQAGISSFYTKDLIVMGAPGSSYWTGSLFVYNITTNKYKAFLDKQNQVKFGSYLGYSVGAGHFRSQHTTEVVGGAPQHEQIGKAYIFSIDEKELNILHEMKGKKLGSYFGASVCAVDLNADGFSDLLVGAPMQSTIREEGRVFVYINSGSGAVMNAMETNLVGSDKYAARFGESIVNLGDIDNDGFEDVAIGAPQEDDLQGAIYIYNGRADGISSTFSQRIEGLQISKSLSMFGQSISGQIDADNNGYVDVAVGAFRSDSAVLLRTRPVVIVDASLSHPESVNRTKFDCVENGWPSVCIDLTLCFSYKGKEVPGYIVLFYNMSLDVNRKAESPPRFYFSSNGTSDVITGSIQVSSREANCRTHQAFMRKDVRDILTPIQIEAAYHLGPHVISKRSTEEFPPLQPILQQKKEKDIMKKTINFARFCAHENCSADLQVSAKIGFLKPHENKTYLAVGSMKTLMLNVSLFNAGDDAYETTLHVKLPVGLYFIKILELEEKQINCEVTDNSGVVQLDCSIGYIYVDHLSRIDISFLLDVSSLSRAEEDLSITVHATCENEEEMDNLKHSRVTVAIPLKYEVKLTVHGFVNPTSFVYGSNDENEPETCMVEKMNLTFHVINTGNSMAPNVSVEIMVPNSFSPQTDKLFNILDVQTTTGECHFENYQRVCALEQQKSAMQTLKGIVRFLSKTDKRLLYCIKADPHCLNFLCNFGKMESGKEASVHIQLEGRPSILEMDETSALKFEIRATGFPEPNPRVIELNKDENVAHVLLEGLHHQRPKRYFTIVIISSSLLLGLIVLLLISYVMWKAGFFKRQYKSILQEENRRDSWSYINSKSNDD
T1 sequence (P05556 21-798): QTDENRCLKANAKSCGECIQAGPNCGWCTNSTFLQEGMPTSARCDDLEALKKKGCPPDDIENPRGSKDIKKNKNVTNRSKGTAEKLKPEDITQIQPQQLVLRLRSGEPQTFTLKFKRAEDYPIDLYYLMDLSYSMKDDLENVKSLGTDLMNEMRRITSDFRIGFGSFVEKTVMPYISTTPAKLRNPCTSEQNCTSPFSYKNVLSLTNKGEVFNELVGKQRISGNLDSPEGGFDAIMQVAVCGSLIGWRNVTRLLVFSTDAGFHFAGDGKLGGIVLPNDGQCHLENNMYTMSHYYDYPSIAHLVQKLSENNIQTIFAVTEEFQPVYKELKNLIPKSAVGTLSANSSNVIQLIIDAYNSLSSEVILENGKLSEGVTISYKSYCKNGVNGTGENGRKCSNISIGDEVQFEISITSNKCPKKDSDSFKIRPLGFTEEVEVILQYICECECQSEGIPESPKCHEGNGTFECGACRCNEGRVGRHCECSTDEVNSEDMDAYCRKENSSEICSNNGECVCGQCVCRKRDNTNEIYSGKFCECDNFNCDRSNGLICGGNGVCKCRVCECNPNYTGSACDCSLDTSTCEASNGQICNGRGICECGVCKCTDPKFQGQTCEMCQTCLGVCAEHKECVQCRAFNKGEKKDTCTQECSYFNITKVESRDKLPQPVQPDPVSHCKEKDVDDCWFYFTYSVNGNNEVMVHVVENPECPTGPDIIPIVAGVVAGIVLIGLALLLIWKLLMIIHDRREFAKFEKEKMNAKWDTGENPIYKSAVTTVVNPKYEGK

Row | SMILES | IC50 [nM]
1 | Cc1cccc(C(C)C)c1C(=O)N[C@@H](Cc1ccc(-c2c(C)n(C)c(=O)n(C)c2=O)cc1)C(=O)O [Example 11, N-[[2-(2-methylethyl)-6-methylphenyl]carbonyl]-4-(1,3,6-trimethyl-2,4-dioxo-5-pyrimidinyl)-L-phenylalanine] | < 100
2 | CCCc1cccc(Cl)c1C(=O)N[C@@H](Cc1ccc(-c2c(C)n(C)c(=O)n(C)c2=O)cc1)C(=O)O [Example 16, N-[(2-chloro-6-propylphenyl)carbonyl]-4-(1,3,6-trimethyl-2,4-dioxo-5-pyrimidinyl)-L-phenylalanine] | < 100
3 | Cc1cccc(Cl)c1C(=O)N[C@@H](Cc1ccc(-c2c(C)n(C)c(=O)n(C)c2=O)cc1)C(=O)O [Example 9, N-[(2-chloro-6-methylphenyl)carbonyl]-4-(1,3,6-trimethyl-2,4-dioxo-5-pyrimidinyl)-L-phenylalanine] | < 100
4 | COCCC1(C(=O)N[C@@H](Cc2ccc(-c3c(C)n(C)c(=O)n(C)c3=O)cc2)C(=O)O)CCCC1 [Example 7, N-[[1-(2-methoxyethyl)cyclopentyl]carbonyl]-4-(1,3,6-trimethyl-2,4-dioxo-5-pyrimidinyl)-L-phenylalanine] | < 100
5 | Cc1c(-c2ccc(C[C@H](NC(=O)c3c(F)cccc3F)C(=O)O)cc2)c(=O)n(C)c(=O)n1C [Example 12, N-[(2,6-difluorophenyl)carbonyl]-4-(1,3,6-trimethyl-2,4-dioxo-5-pyrimidinyl)-L-phenylalanine] | < 100
6 | Cc1c(-c2ccc(C[C@H](NC(=O)c3c(C(C)C)cccc3C(C)C)C(=O)O)cc2)c(=O)n(C)c(=O)n1C [Example 14, N-[[2,6-di-(2-methylethyl)phenyl]carbonyl]-4-(1,3,6-trimethyl-2,4-dioxo-5-pyrimidinyl)-L-phenylalanine] | < 10000
7 | CCc1cccc(C)c1C(=O)N[C@@H](Cc1ccc(-c2c(C)n(C)c(=O)n(C)c2=O)cc1)C(=O)O [Example 10, N-[(2-ethyl-6-methylphenyl)carbonyl]-4-(1,3,6-trimethyl-2,4-dioxo-5-pyrimidinyl)-L-phenylalanine] | < 100
8 | Cc1cccc(Br)c1C(=O)N[C@@H](Cc1ccc(-c2c(C)n(C)c(=O)n(C)c2=O)cc1)C(=O)O [Example 8, N-[(2-bromo-6-methylphenyl)carbonyl]-4-(1,3,6-trimethyl-2,4-dioxo-5-pyrimidinyl)-L-phenylalanine] | < 100
9 | CCc1cccc(Cl)c1C(=O)N[C@@H](Cc1ccc(-c2c(C)n(C)c(=O)n(C)c2=O)cc1)C(=O)O [Example 15, N-[(2-chloro-6-ethylphenyl)carbonyl]-4-(1,3,6-trimethyl-2,4-dioxo-5-pyrimidinyl)-L-phenylalanine] | < 100
10 | Cc1c(-c2ccc(C[C@H](NC(=O)c3c(Cl)cccc3Cl)C(=O)O)cc2)c(=O)n(C)c(=O)n1C [Example 6, N-[(2,6-dichlorophenyl)carbonyl]-4-(1,3,6-trimethyl-2,4-dioxo-5-pyrimidinyl)-L-phenylalanine] | < 100
11 | Cc1c(-c2ccc(C[C@H](NC(=O)c3c(F)cccc3C(F)(F)F)C(=O)O)cc2)c(=O)n(C)c(=O)n1C [Example 13, N-[(2-fluoro-6-(trifluoromethyl)phenyl)carbonyl]-4-(1,3,6-trimethyl-2,4-dioxo-5-pyrimidinyl)-L-phenylalanine] | < 100

The remaining lines, values ahead:

Row | IC50 [nM] | SMILES
12 | < 100 | CCn1c(C)c(-c2ccc(C[C@H](NC(=O)C3(CCOC)CCCC3)C(=O)O)cc2)c(=O)n(CC)c1=O [Example 20, 4-(1,3-diethyl-6-methyl-2,4-dioxo-5-pyrimidinyl)-N-[[1-(2-methoxyethyl)cyclopentyl]carbonyl]-L-phenylalanine]
13 | < 100 | Cn1c(C(F)(F)F)c(-c2ccc(C[C@H](NC(=O)c3c(F)cccc3C(F)(F)F)C(=O)O)cc2)c(=O)n(C)c1=O [Example 23, N-[[2-fluoro-6-(trifluoromethyl)phenyl]carbonyl]-4-(1,3-dimethyl-2,4-dioxo-6-(trifluoromethyl)-5-pyrimidinyl)-L-phenylalanine]
14 | < 100 | CCn1c(C)c(-c2ccc(C[C@H](NC(=O)c3c(Cl)cccc3Cl)C(=O)O)cc2)c(=O)n(CC)c1=O [Example 18, N-[(2,6-dichlorophenyl)carbonyl]-4-(1,3-diethyl-6-methyl-2,4-dioxo-5-pyrimidinyl)-L-phenylalanine]
15 | < 100 | Cn1c(C(F)(F)F)c(-c2ccc(C[C@H](NC(=O)c3c(Cl)cccc3Cl)C(=O)O)cc2)c(=O)n(C)c1=O [Example 21, N-[1-(2,6-dichlorophenyl)carbonyl]-4-(1,3-dimethyl-2,4-dioxo-6-(trifluoromethyl)-5-pyrimidinyl)-L-phenylalanine]
16 | < 100 | Cc1cc(C[C@H](NC(=O)c2c(Cl)cccc2Cl)C(=O)O)ccc1-c1cn(C)c(=O)n(C)c1=O [Example 25, N-[(2,6-dichlorophenyl)carbonyl]-4-(1,3-dimethyl-2,4-dioxo-5-pyrimidinyl)-3-methyl-L-phenylalanine]
17 | < 10000 | Cc1cc(C[C@H](NC(=O)c2c(Cl)cccc2Cl)C(=O)O)ccc1-c1c(C)n(C)c(=O)n(C)c1=O [Example 26, N-[(2,6-dichlorophenyl)carbonyl]-4-(1,3,6-trimethyl-2,4-dioxo-5-pyrimidinyl)-3-methyl-L-phenylalanine]
18 | < 10000 | CCOC(=O)[C@H](Cc1ccc(-c2c(C)n(C)c(=O)n(C)c2=O)cc1)NC(=O)c1c(Cl)cccc1Cl [Example 27, N-[(2,6-dichlorophenyl)carbonyl]-4-(1,3,6-trimethyl-2,4-dioxo-5-pyrimidinyl)-L-phenylalanine ethyl ester]
19 | < 100 | Cc1cccc(Cl)c1C(=O)N[C@@H](Cc1ccc(-c2c(C(F)(F)F)n(C)c(=O)n(C)c2=O)cc1)C(=O)O [Example 22, N-[(2-chloro-6-methylphenyl)carbonyl]-4-[1,3-dimethyl-2,4-dioxo-6-(trifluoromethyl)-5-pyrimidinyl]-L-phenylalanine]
20 | < 10000 | Cc1cc(C[C@H](NC(=O)c2c(C)cccc2Cl)C(=O)O)ccc1-c1cn(C)c(=O)n(C)c1=O [Example 24, N-[(2-chloro-6-methylphenyl)carbonyl]-4-(1,3-dimethyl-2,4-dioxo-5-pyrimidinyl)-3-methyl-L-phenylalanine]
21 | < 100 | CCn1c(C)c(-c2ccc(C[C@H](NC(=O)c3c(C)cccc3Cl)C(=O)O)cc2)c(=O)n(CC)c1=O [Example 19, N-[(2-chloro-6-methylphenyl)carbonyl]-4-(1,3-diethyl-6-methyl-2,4-dioxo-5-pyrimidinyl)-L-phenylalanine]

Reference: patent US6380387B1, “4-Pyrimidinyl-n-acyl-l phenylalanines” (Hoffmann-La Roche Inc., priority 1999, dated 2002)
